{
  "source": "patent US20180184655A1",
  "about": "(priority 2011, published 2018)",
  "system": "Phytophthora infestans",
  "assay_type": "in vivo, Phytophthora infestans on Potato",
  "conditions": "Potato field trial, France 2010, 6 foliar sprays, fluopicolide 75 g a.s./ha, cyazofamid 60 g a.s./ha, adjuvant 150 ml/ha",
  "data": [
    {"smiles": "O=C(NCc1ncc(C(F)(F)F)cc1Cl)c1c(Cl)cccc1Cl", "note": "[Fluopicolide, 2,6-dichloro-N-[3-chloro-5-(trifluoromethyl)-2-pyridylmethyl]benzamide]", "values": [
      {"measurement": "Efficacy (Abbott values)", "setting": "29 days after last application", "result": 18.3, "unit": "%"},
      {"measurement": "Late blight severity on leaves", "setting": "assessed 29 days after last application, mean values, untreated reference 100%", "result": 81.7, "unit": "%"}
    ]}
  ]
}
